{"source": "ChEMBL document CHEMBL5252648", "about": "“Design, synthesis and bioactivity evaluation of a series of quinazolinone derivatives as potent PI3Kγ antagonist” (Bioorg Med Chem, 2023)", "key": {"[1]": {"target": "T1, Phosphatidylinositol 4,5-bisphosphate 3-kinase catalytic subunit gamma isoform (Homo sapiens, UniProt P48736)", "experiment": "Antagonist activity at PI3Kgamma (unknown origin) assessed as inhibition rate at 20 nM using PIP2 as substrate in presence of ATP incubated for 30 to 60 mins by ADP-glo based luminescence assay relative to control", "details": "filed as antagonist, time 30-60 min"}, "[2]": {"target": "T2, Phosphatidylinositol 4,5-bisphosphate 3-kinase catalytic subunit delta isoform (Homo sapiens, UniProt O00329)", "T2 sequence (O00329 whole entry)": "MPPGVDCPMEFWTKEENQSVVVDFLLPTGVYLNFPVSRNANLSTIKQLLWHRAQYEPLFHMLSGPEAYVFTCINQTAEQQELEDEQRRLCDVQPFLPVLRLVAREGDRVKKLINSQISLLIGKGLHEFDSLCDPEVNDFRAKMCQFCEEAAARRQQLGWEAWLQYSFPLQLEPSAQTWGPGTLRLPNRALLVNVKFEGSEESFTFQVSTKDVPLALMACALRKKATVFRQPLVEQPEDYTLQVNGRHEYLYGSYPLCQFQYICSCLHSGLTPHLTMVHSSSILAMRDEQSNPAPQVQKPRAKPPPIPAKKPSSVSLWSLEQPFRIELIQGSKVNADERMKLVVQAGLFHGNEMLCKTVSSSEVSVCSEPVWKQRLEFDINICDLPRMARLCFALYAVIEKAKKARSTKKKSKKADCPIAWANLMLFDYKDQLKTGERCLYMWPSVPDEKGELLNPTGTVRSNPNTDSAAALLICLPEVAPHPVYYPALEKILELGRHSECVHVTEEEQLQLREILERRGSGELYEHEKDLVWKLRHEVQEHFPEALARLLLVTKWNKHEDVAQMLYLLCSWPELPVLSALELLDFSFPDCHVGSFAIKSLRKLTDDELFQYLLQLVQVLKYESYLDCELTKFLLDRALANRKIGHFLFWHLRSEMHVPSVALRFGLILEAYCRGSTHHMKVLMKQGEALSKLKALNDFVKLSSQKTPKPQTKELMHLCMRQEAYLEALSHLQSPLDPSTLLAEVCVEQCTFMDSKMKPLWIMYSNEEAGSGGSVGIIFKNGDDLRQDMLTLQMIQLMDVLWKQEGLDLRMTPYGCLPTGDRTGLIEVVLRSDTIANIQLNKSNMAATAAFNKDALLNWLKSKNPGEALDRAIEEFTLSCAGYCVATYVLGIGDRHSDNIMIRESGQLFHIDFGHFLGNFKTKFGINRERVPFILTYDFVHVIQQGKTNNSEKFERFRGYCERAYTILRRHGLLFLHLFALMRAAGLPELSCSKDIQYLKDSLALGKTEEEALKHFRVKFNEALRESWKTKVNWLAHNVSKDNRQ", "experiment": "Antagonist activity at PI3Kdelta (unknown origin) using PIP2 as substrate in presence of ATP incubated for 30 to 60 mins by ADP-glo based luminescence assay"}, "[3]": {"target": "T1, Phosphatidylinositol 4,5-bisphosphate 3-kinase catalytic subunit gamma isoform", "experiment": "Antagonist activity at PI3Kgamma (unknown origin) using PIP2 as substrate in presence of ATP incubated for 30 to 60 mins by ADP-glo based luminescence assay"}, "[4]": {"tested_on": "RAW264.7", "experiment": "Cytotoxicity against mouse RAW264.7 cells assessed as reduction in cell viability incubated for 24 hrs by CCK-8 assay", "format": "functional, cell-based", "details": "RAW264.7, 24 h"}, "[5]": {"tested_on": "MDA-MB-231", "experiment": "Cytotoxicity against human MDA-MB-231 cells assessed as reduction in cell viability incubated for 24 hrs by CCK-8 assay", "format": "functional, cell-based", "details": "MDA-MB-231, 24 h"}, "[6]": {"tested_on": "HepG2", "experiment": "Cytotoxicity against human HepG2 cells assessed as reduction in cell viability incubated for 24 hrs by CCK-8 assay", "format": "functional, cell-based", "details": "HepG2, 24 h"}, "[7]": {"tested_on": "B16-F10", "experiment": "Cytotoxicity against mouse B16-F10 cells assessed as reduction in cell viability incubated for 24 hrs by CCK-8 assay", "format": "functional, cell-based", "details": "B16-F10, 24 h"}, "[8]": {"experiment": "Cytotoxicity against mouse L929 cells assessed as reduction in cell viability incubated for 24 hrs by CCK-8 assay", "format": "toxicity, cell-based"}, "[9]": {"tested_on": "Jurkat", "experiment": "Induction of apoptosis against human Jurkat cells assessed as necrotic cells at 0.1 uM measured for 24 hrs by Annexin V-FITC/propidium iodide staining based flow cytometry (reference value: 0.00%)", "format": "functional"}, "[10]": {"tested_on": "Jurkat", "experiment": "Induction of apoptosis against human Jurkat cells assessed as early apoptotic cells at 1 uM measured for 24 hrs by Annexin V-FITC/propidium iodide staining based flow cytometry (reference value: 5.76%)", "format": "functional"}, "[11]": {"tested_on": "Jurkat", "experiment": "Induction of apoptosis against human Jurkat cells assessed as necrotic cells at 1 uM measured for 24 hrs by Annexin V-FITC/propidium iodide staining based flow cytometry (reference value: 0.00%)", "format": "functional"}, "[12]": {"tested_on": "Jurkat", "experiment": "Induction of apoptosis against human Jurkat cells assessed as viable cells at 10 uM measured for 24 hrs by Annexin V-FITC/propidium iodide staining based flow cytometry (reference value: 94.2 %)", "format": "functional", "details": "read-out: Activity"}, "[13]": {"tested_on": "Jurkat", "experiment": "Induction of apoptosis against human Jurkat cells assessed as early apoptotic cells at 10 uM measured for 24 hrs by Annexin V-FITC/propidium iodide staining based flow cytometry (reference value: 5.76%)", "format": "functional"}, "[14]": {"tested_on": "Jurkat", "experiment": "Induction of apoptosis against human Jurkat cells assessed as necrotic cells at 10 uM measured for 24 hrs by Annexin V-FITC/propidium iodide staining based flow cytometry (reference value: 0.00%)", "format": "functional"}, "[15]": {"tested_on": "THP-1", "experiment": "Induction of apoptosis against human THP-1 cells assessed as early apoptotic cells at 0.1 uM measured for 24 hrs by Annexin V-FITC/propidium iodide staining based flow cytometry (reference value: 10.3%)", "format": "functional"}, "[16]": {"tested_on": "THP-1", "experiment": "Induction of apoptosis against human THP-1 cells assessed as late apoptotic cells at 0.1 uM measured for 24 hrs by Annexin V-FITC/propidium iodide staining based flow cytometry (reference value: 3.70%)", "format": "functional"}, "[17]": {"tested_on": "RAW264.7", "experiment": "Inhibition of AKT phosphorylation in mouse RAW264.7 cells at 1 uM incubated for 1 to 12 hrs by Western blot analysis relative to control", "format": "cell-based", "details": "time 1-12 hrs"}, "[18]": {"target": "T3, Serine/threonine-protein kinase AKT (Homo sapiens) (UniProt P31751+Q9Y243+P31749)", "T3 sequence (P31749 whole entry, looked up)": "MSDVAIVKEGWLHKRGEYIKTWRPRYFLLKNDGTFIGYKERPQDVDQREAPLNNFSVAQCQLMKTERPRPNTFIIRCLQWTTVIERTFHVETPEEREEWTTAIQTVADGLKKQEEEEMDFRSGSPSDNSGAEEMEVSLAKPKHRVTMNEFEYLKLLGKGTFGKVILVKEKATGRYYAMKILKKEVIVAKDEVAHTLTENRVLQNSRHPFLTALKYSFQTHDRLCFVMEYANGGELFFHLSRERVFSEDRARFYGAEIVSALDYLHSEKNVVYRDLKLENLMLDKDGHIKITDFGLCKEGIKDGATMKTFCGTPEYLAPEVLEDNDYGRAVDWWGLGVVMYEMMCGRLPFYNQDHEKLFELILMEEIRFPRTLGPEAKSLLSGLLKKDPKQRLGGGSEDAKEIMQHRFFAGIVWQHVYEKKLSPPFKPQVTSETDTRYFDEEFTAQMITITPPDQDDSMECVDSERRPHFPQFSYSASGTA", "T3 sequence (P31751 whole entry, looked up)": "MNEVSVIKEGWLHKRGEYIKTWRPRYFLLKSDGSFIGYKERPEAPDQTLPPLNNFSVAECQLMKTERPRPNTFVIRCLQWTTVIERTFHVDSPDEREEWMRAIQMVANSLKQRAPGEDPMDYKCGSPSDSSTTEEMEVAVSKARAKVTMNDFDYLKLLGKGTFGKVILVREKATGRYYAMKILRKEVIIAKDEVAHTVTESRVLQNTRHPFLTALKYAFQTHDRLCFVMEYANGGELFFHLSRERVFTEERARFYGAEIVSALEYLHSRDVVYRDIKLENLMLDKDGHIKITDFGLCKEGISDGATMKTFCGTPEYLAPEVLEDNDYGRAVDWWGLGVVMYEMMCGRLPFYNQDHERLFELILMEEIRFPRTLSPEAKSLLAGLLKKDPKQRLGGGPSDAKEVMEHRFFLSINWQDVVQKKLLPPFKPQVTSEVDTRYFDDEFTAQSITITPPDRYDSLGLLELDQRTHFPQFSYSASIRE", "T3 sequence (Q9Y243 whole entry, looked up)": "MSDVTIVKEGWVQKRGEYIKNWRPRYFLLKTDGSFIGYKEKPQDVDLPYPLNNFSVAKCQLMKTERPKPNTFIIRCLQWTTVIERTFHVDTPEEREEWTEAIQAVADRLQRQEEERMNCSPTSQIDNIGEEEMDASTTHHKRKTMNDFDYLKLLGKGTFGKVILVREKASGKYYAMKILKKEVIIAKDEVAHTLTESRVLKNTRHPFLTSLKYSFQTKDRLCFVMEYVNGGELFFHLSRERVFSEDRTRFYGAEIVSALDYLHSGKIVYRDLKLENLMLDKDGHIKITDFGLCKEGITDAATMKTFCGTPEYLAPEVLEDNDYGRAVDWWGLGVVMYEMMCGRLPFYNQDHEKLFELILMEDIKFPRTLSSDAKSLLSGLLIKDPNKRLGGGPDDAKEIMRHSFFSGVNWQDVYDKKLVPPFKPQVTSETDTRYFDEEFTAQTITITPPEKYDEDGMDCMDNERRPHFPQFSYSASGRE", "experiment": "Inhibition of AKT phosphorylation in human Jurkat cells at 1 uM incubated for 1 to 12 hrs by Western blot analysis relative to control", "format": "cell-based", "details": "time 1-12 hrs"}, "[19]": {"target": "T3, Serine/threonine-protein kinase AKT (Homo sapiens)", "experiment": "Inhibition of AKT phosphorylation in human THP-1 cells incubated for 1 to 12 hrs by Western blot analysis relative to control", "format": "cell-based", "details": "dose 0.1-10 µM, time 1-12 hrs"}, "[20]": {"tested_on": "THP-1", "experiment": "Induction of apoptosis against human THP-1 cells assessed as viable cells at 1 uM measured for 24 hrs by Annexin V-FITC/propidium iodide staining based flow cytometry (reference value: 85.6%)", "format": "functional", "details": "read-out: Activity"}, "[21]": {"tested_on": "THP-1", "experiment": "Induction of apoptosis against human THP-1 cells assessed as early apoptotic cells at 1 uM measured for 24 hrs by Annexin V-FITC/propidium iodide staining based flow cytometry (reference value: 10.3%)", "format": "functional"}, "[22]": {"tested_on": "THP-1", "experiment": "Induction of apoptosis against human THP-1 cells assessed as late apoptotic cells at 1 uM measured for 24 hrs by Annexin V-FITC/propidium iodide staining based flow cytometry (reference value: 3.70%)", "format": "functional"}, "[23]": {"tested_on": "THP-1", "experiment": "Induction of apoptosis against human THP-1 cells assessed as late apoptotic cells at 10 uM measured for 24 hrs by Annexin V-FITC/propidium iodide staining based flow cytometry (reference value: 3.70%)", "format": "functional"}}, "note": "Active and inactive are the calls of the source. The calls are words filed in the database; no cut-off is given here."}
{"smiles": "COc1ccc(C#Cc2cccc3cc(C(C)Nc4ncnc5[nH]cnc45)n(-c4ccccc4)c(=O)c23)cc1", "note": "(stereo not drawn)", "values": [{"measurement": "inhibition", "setting": "[1]", "value": 53, "unit": "%"}, {"measurement": "IC50", "setting": "[2]", "value": 0.0131, "unit": "µM"}, {"measurement": "IC50", "setting": "[3]", "value": 0.208, "unit": "µM"}, {"measurement": "IC50", "setting": "[4]", "value": 4.54, "unit": "µM"}, {"measurement": "IC50", "setting": "[5]", "value": 6.6, "unit": "µM"}, {"measurement": "IC50", "setting": "[6]", "value": "> 100", "unit": "µM"}, {"measurement": "IC50", "setting": "[7]", "value": "> 100", "unit": "µM"}, {"measurement": "IC50 at 24 h", "setting": "[8]", "value": "> 100", "unit": "µM"}, {"measurement": "Activity", "setting": "[9]", "value": 0, "unit": "%"}, {"measurement": "Activity", "setting": "[10]", "value": 17.7, "unit": "%"}, {"measurement": "Activity", "setting": "[11]", "value": 0, "unit": "%"}, {"measurement": "viability at 10 µM", "setting": "[12]", "value": 30.2, "unit": "%"}, {"measurement": "Activity", "setting": "[13]", "value": 69.7, "unit": "%"}, {"measurement": "Activity", "setting": "[14]", "value": 0.016, "unit": "%"}, {"measurement": "Activity", "setting": "[15]", "value": 25.3, "unit": "%"}, {"measurement": "Activity", "setting": "[16]", "value": 7.85, "unit": "%"}, {"measurement": "inhibition", "setting": "[17]", "value": "Active"}, {"measurement": "inhibition", "setting": "[18]", "value": "Active"}, {"measurement": "inhibition", "setting": "[19]", "value": "Dose-Dependent Effect"}, {"measurement": "viability at 1 µM", "setting": "[20]", "value": 59.6, "unit": "%"}, {"measurement": "Activity", "setting": "[21]", "value": 35.7, "unit": "%"}, {"measurement": "Activity", "setting": "[22]", "value": 4.63, "unit": "%"}, {"measurement": "Activity", "setting": "[23]", "value": 14.6, "unit": "%"}]}
